Laboratory results: patent US8541419B2, “Isotopically enriched pyrimidin-5-yl acetic acid derivatives as CRTH2 antagonists” (Actimis Pharmaceuticals, Inc., priority 2008, dated 2013)
Values joined by “and” are separate entries in the source; they are usually repeats but may differ in a detail not shown here. Equal values may be shown once. Marks after values point to notes of the source that are not given here.

Assays:
[1] = Pharmacokinetics and bioavailability in male Han Wistar rats after simultaneous oral administration; assay type: in vivo; design: AUC0-t / AUC0-∞: concentration or dose not given beside the values
From the text: (§1) The pharmacokinetics and bioavailability of [4,6-bis([^2H6]dimethylamino)-2-(4-{[4-(trifluoromethyl)benzoyl]amino}benzyl)pyrimidin-5-yl]acetic acid (1) and [4,6-bisdimethylamino)-2-(4-{[4-(trifluoromethyl)benzoyl]amino}benzyl)pyrimidin-5-yl]acetic acid (“the undeuterated analog”) were compared in male Han Wistar rats after intravenous (“IV”) and oral (“PO”) administration.
(§2) The following additional acronyms and definitions are used in the study: • AUC0-∞—area under the plasma concentration time curve from time 0 to infinity • AUC0-t—area under the plasma concentration time curve from time 0 to the last quantifiable timepoint • AUMC—area under the first moment curve • CL—total plasma clearance • Cmax—maximum plasma concentration • MRT—mean residence time • PEG—polyethylene glycol • t½—elimination half-life • tmax—time of maximum plasma concentration • Vss—steady-state volume of distribution
(§3) Compound 1 (1.02 mg/kg) and the undeuterated analog (1.0 mg/kg) and were administered simultaneously as a solution in PEG 400:ethanol:water (40:10:50) both intravenously and orally (by gavage) to four male rats per dose route. The doses were equivalent on a molar basis. Blood samples were collected serially up to 48 h postdose. […] Noncompartmental pharmacokinetic parameters were calculated and the results compared statistically using paired t-tests, since the simultaneous administration of both compounds allows each rat to serve as its own control.

CRTH2 = target: T1, CRTH2 (Homo sapiens, UniProt Q9Y5Y4); experiment: Biological inhibitory activity in vitro
T1 sequence (Q9Y5Y4 1-395): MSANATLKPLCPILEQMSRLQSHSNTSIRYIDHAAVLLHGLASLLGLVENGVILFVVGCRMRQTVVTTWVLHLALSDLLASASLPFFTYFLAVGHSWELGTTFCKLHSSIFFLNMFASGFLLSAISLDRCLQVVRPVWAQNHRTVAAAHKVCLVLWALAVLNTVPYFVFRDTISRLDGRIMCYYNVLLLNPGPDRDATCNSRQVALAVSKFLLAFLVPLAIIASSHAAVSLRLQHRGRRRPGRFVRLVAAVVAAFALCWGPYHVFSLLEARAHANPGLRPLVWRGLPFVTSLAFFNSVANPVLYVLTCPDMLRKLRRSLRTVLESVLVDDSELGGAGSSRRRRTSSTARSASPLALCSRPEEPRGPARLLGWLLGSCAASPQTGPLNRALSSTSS

[2] = Pharmacokinetics in male Han Wistar rats after simultaneous intravenous administration; assay type: in vivo; design: AUC0-t / AUC0-∞: concentration or dose not given beside the values
From the text: as §1, §2, §3

[3] = male, Han Wistar, rat, in vivo, po
[4] = male, Han Wistar, rat, in vivo, iv
[5] = oral, individual rats, listed as H
[6] = IV, individual rats, listed as H

**Q.** Which “AUC0-t higher than that of the undeuterated analog” value [1, 3] does the source give for `[2H]C([2H])([2H])N(c1nc(Cc2ccc(NC(=O)c3ccc(C(F)(F)F)cc3)cc2)nc(N(C([2H])([2H])[2H])C([2H])([2H])[2H])c1CC(=O)O)C([2H])([2H])[2H]` [Compound 1, [4,6-bis([^2H6]dimethylamino)-2-(4-{[4-(trifluoromethyl)benzoyl]amino}benzyl)pyrimidin-5-yl]acetic acid] here?
**A.** 71%

**Q.** What about the “AUC0-∞ higher than that of the undeuterated analog” value [1, 3] of the same compound?
**A.** 63%

**Q.** And the “Cmax higher than that of the undeuterated analog” value [1, 3]?
**A.** 42%

**Q.** What about the “Extrapolated area of AUC0-∞, averaged, of total area” value [1, 3] of the same compound?
**A.** < 1.5%

**Q.** What about the tmax ([1]; male, Han Wistar, rat, in vivo, po, 1.02 mg/kg) of the same compound?
**A.** 1 h

**Q.** And the MRT ([1]; male, Han Wistar, rat, in vivo, po, 1.02 mg/kg, MRT)?
**A.** 2.61 ± 0.708 h

**Q.** And the tmax ([1]; male, Han Wistar, rat, in vivo, po, 1.02 mg/kg, tmax)?
**A.** 0.5 h

**Q.** And the Bioavailability ([1]; male, Han Wistar, rat, in vivo, po, Bioavailability)?
**A.** 52.5%

**Q.** And the “bioavailability relative to the unlabeled drug” value ([1]; rat, in vivo)?
**A.** better bioavailability

**Q.** What about the “plasma concentrations compared with the undeuterated analog” value ([1]; rat, in vivo, po) of the same compound?
**A.** greater than those of the undeuterated analog

**Q.** And the “biological inhibitory activity in vitro compared to the undeuterated analog” value (CRTH2)?
**A.** comparable

**Q.** What about the “AUC0-∞ higher than that of the undeuterated analog” value [2, 4] of the same compound?
**A.** 28%

**Q.** What about the “Extrapolated area of AUC0-∞, averaged, of total area” value [2, 4] of the same compound?
**A.** < 0.15%

**Q.** And the “clearance as percent of that of the undeuterated analog” value [2, 4]?
**A.** 80%

**Q.** And the “clearance relative to the unlabeled drug” value ([2]; rat, in vivo)?
**A.** reduced clearance

**Q.** And the “plasma concentrations compared with the undeuterated analog” value ([2]; rat, in vivo, iv)?
**A.** greater than those of the undeuterated analog

**Q.** Which “Plasma Concentrations” value ([1]; oral, 0.25 h, individual rats) does the source give for `CN(C)c1nc(Cc2ccc(NC(=O)c3ccc(C(F)(F)F)cc3)cc2)nc(N(C)C)c1CC(=O)O` [Undeuterated Analog, reference compound] here?
**A.** 959 ng/mL and 308 ng/mL and 1,520 ng/mL and 1,180 ng/mL and 1,910 nM and 614 nM and 3,030 nM and 2,350 nM

**Q.** And the “Plasma Concentrations” value ([1]; oral, 0.25 h, mean)?
**A.** 992 ng/mL and 1980 nM

**Q.** And the “Plasma Concentrations” value ([1]; oral, 0.5 h, individual rats)?
**A.** 1,060 ng/mL and 355 ng/mL and 2,940 ng/mL and 1,590 ng/mL and 2,110 nM and 708 nM and 5,860 nM and 3,170 nM

**Q.** What about the “Plasma Concentrations” value ([1]; oral, 0.5 h, mean) of the same compound?
**A.** 1,490 ng/mL and 2960 nM

**Q.** What about the “Plasma Concentrations” value ([1]; oral, 1 h, individual rats) of the same compound?
**A.** 744 ng/mL and 191 ng/mL and 3,180 ng/mL and 1,220 ng/mL and 1,480 nM and 381 nM and 6,340 nM and 2,430 nM

**Q.** And the “Plasma Concentrations” value ([1]; oral, 1 h, mean)?
**A.** 1,330 ng/mL and 2660 nM

**Q.** And the “Plasma Concentrations” value ([1]; oral, 2 h, individual rats)?
**A.** 463 ng/mL and 104 ng/mL and 1,290 ng/mL and 548 ng/mL and 923 nM and 207 nM and 2,570 nM and 1,090 nM

**Q.** And the “Plasma Concentrations” value ([1]; oral, 2 h, mean)?
**A.** 601 ng/mL and 1200 nM

**Q.** What about the “Plasma Concentrations” value ([1]; oral, 4 h, individual rats) of the same compound?
**A.** 68.4 ng/mL and 32.5 ng/mL and 559 ng/mL and 178 ng/mL and 64.8 nM and 1,120 nM and 355 nM

**Q.** What about the “Plasma Concentrations” value ([1]; oral, 4 h, mean) of the same compound?
**A.** 209 ng/mL and 511 nM

**Q.** What about the “Plasma Concentrations” value ([1]; oral, 6 h, individual rats) of the same compound?
**A.** 22.0 ng/mL and 24.1 ng/mL and 387 ng/mL and 93.3 ng/mL and 43.9 nM and 48.1 nM and 772 nM and 186 nM

**Q.** And the “Plasma Concentrations” value ([1]; oral, 6 h, mean)?
**A.** 132 ng/mL and 262 nM

**Q.** What about the “Plasma Concentrations” value ([1]; oral, 8 h, individual rats) of the same compound?
**A.** 12.3 ng/mL and 18.7 ng/mL and 217 ng/mL and 76.8 ng/mL and 24.5 nM and 37.3 nM and 433 nM and 153 nM

**Q.** And the “Plasma Concentrations” value ([1]; oral, 8 h, mean)?
**A.** 81.2 ng/mL and 162 nM

**Q.** What about the “Plasma Concentrations” value ([1]; oral, 24 h, individual rats) of the same compound?
**A.** <1.00 ng/mL and 2.99 ng/mL and 2.16 ng/mL and <1.99 nM and 5.96 nM and 4.31 nM

**Q.** And the “Plasma Concentrations” value ([1]; oral, 24 h, mean)?
**A.** 1.29 ng/mL and 2.57 nM

**Q.** What about the “Plasma Concentrations” value ([1]; oral, 48 h, individual rats) of the same compound?
**A.** <1.00 ng/mL and 1.57 ng/mL and <1.99 nM and 3.13 nM

**Q.** And the “Plasma Concentrations” value ([1]; oral, 48 h, mean)?
**A.** 0.393 ng/mL and 0.783 nM

**Q.** What about the t1/2 ([1]; oral, harmonic mean N=4, listed as H) of the same compound?
**A.** 2.39 ± 2.11 h and 2.39^d h

**Q.** And the AUC0-t [1, 5]?
**A.** 3,880 nM · h and 1,280 nM · h and 19,300 nM · h and 7,820 nM · h

**Q.** What about the “AUC0-∞” value [1, 5] of the same compound?
**A.** 3,920 nM · h and 1,550 nM · h and 19,300 nM · h and 7,850 nM · h

**Q.** What about the Bioavailability [1, 5] of the same compound?
**A.** 10.3% and 4.06% and 50.5% and 20.6%

**Q.** What about the CL/F [1, 5] of the same compound?
**A.** 8.48 mL/min/kg and 21.5 mL/min/kg and 1.72 mL/min/kg and 4.23 mL/min/kg

**Q.** And the Cmax [1, 5]?
**A.** 2.11 µM and 0.708 µM and 6.34 µM and 3.17 µM

**Q.** And the MRT [1, 5]?
**A.** 1.40 h and 4.25 h and 3.36 h and 3.47 h

**Q.** What about the t1/2 [1, 5] of the same compound?
**A.** 1.10 h and 5.02 h and 2.57 h and 5.63 h

**Q.** And the tmax [1, 5]?
**A.** 0.5 h (3×) and 1 h

**Q.** What about the Cmax ([1]; oral, mean N=4) of the same compound?
**A.** 3.08 µM

**Q.** And the AUC0-t ([1]; oral, mean N=4, listed as H)?
**A.** 8,070 ± 7,950 nM · h and 8,070 nM · h

**Q.** What about the “AUC0-∞” value ([1]; oral, mean N=4, listed as H) of the same compound?
**A.** 8,160 ± 7,880 nM · h and 8,160 nM · h

**Q.** And the Bioavailability ([1]; oral, mean N=4, listed as H)?
**A.** 21.3%

**Q.** And the CL/F ([1]; oral, mean N=4, listed as H)?
**A.** 8.97^c ± 8.78^ mL/min/kg and 8.97 mL/min/kg

**Q.** And the MRT ([1]; oral, mean N=4, listed as H)?
**A.** 3.12 ± 1.21 h and 3.12 h

**Q.** And the Bioavailability ([1]; oral, mean N=4, listed as the undeuterated analog)?
**A.** 45.6%

**Q.** And the tmax ([1]; oral, median (range) N=4, listed as H)?
**A.** 0.5 (0.5-1.0)^e h and 0.5^a h

**Q.** And the “Plasma Concentrations” value ([2]; IV, 8 h, individual rats)?
**A.** 64.0 ng/mL and 173 ng/mL and 88.4 ng/mL and 12.0 ng/mL

**Q.** What about the “Plasma Concentrations” value ([2]; IV, 8 h, mean) of the same compound?
**A.** 84.4 ng/mL

**Q.** And the “Plasma Concentrations” value ([2]; IV, 24 h, individual rats)?
**A.** 12.0 ng/mL and 4.78 ng/mL and 3.29 ng/mL and <1.00 ng/mL

**Q.** What about the “Plasma Concentrations” value ([2]; IV, 24 h, mean) of the same compound?
**A.** 5.02 ng/mL

**Q.** And the “Plasma Concentrations” value ([2]; IV, 48 h, individual rats)?
**A.** 1.01 ng/mL

**Q.** What about the t1/2 ([2]; IV, harmonic mean N=4, listed as H) of the same compound?
**A.** 3.23 ± 1.99 h and 3.23^b h

**Q.** And the AUC0-t [2, 6]?
**A.** 14,700 nM · h and 23,300 nM · h and 24,300 nM · h and 9,020 nM · h

**Q.** What about the “AUC0-∞” value [2, 6] of the same compound?
**A.** 14,700 nM · h and 23,300 nM · h and 24,400 nM · h and 9,090 nM · h

**Q.** What about the CL [2, 6] of the same compound?
**A.** 2.25 mL/min/kg and 1.43 mL/min/kg and 1.36 mL/min/kg and 3.66 mL/min/kg

**Q.** What about the MRT [2, 6] of the same compound?
**A.** 2.43 h and 2.20 h and 1.26 h and 0.569 h

**Q.** What about the Vss [2, 6] of the same compound?
**A.** 0.328 L/kg and 0.189 L/kg and 0.103 L/kg and 0.125 L/kg

**Q.** And the t1/2 [2, 6]?
**A.** 6.68 h and 3.12 h and 3.60 h and 2.03 h

**Q.** What about the CL ([2]; IV, mean N=4, listed as H) of the same compound?
**A.** 2.17 ± 1.07 mL/min/kg and 2.17 mL/min/kg

**Q.** And the MRT ([2]; IV, mean N=4, listed as H)?
**A.** 1.62 ± 0.861 h and 1.62 h

**Q.** And the Vss ([2]; IV, mean N=4, listed as H)?
**A.** 0.186 ± 0.101 L/kg and 0.186 L/kg
